Common to all, as to experiment: ≥ marks a high value that may be exact or a test limit, other limits are often not marked, values filed in µg/mL are converted to µM
Experiment [1] concerns Bacillus subtilis VKM B-501.
Experiment [2] deals with Staphylococcus xylosus DSM 20267.
Experiment [3] concerns Escherichia coli MH1.
The subject of experiment [4] is Bacillus subtilis subsp. spizizenii DSM 347.
Experiment [5] concerns Acinetobacter sp. DSM 586.
Experiment [6] concerns Escherichia coli DSM 1116.
Experiment [7] concerns Saccharomyces cerevisiae Y190.
Experiment [8] has as its system Arthrobacter globiformis VKM Ac-1112.
Experiment [9] has as its system Pseudomonas aeruginosa PAO1.
The test system of experiment [10] is Escherichia coli DH5alpha.
Experiment [11] deals with Pseudomonas aeruginosa.
Experiment [12] deals with Enterococcus faecium ATCC 19434.
Experiment [13] has as its system Pseudomonas aeruginosa ATCC 27853.
For experiment [14], the system named is Escherichia coli.
Experiment [15] deals with Staphylococcus aureus.
The test system of experiment [16] is Escherichia coli O157:H7 ATCC 43895.
In experiment [17] the test system is Enterococcus faecium.
Experiment [18] deals with Malassezia furfur KCTC 7744.
In experiment [19] the test system is Staphylococcus aureus ATCC 25923.
The subject of experiment [20] is Candida albicans ATCC 90028.
Experiment [21] relates to Aspergillus flavus KCTC 1375.
In experiment [22] the test system is Bacillus subtilis ATCC 62037.
Experiment [23] relates to Escherichia coli ATCC 27325.
Experiment [24] concerns Saccharomyces cerevisiae ATCC 44774.
Experiment [25] has as its system Cryptococcus neoformans ATCC 34881.
Experiment [26] deals with Candida albicans ATCC 10231.
In experiment [27] the test system is Streptococcus mutans ATCC 25175.
Experiment [28] concerns Staphylococcus aureus ATCC 15752.
Experiment [29] concerns Salmonella enterica subsp. enterica serovar Enteritidis ATCC 13076.
The test system of experiment [30] is Pseudomonas putida ATCC 17426.

≈ marks a conversion by molar mass, not a printed value.

By MIC is commonly meant the lowest concentration found to suppress growth. On to `CC[C@H](C)[C@H](NC(=O)[C@H](Cc1ccc(O)cc1)NC(=O)[C@H](CCC(N)=O)NC(=O)[C@H](CCCCN)NC(=O)[C@H](CC(C)C)NC(=O)[C@H](CCCCN)NC(=O)[C@H](CCC(=O)O)NC(=O)CNC(=O)[C@H](CCSC)NC(=O)[C@H](CO)NC(=O)[C@H](CCCCN)NC(=O)[C@H](Cc1ccccc1)NC(=O)[C@H](CCCCN)NC(=O)[C@H](CC(=O)O)NC(=O)[C@H](CCCCN)NC(=O)[C@H](CC(C)C)NC(=O)CN)C(=O)N[C@@H](CCC(N)=O)C(=O)N[C@H](C(=O)N[C@@H](Cc1c[nH]c2ccccc12)C(=O)N[C@@H](CCCCN)C(=O)N[C@@H](C)C(=O)N[C@@H](CCCCN)C(=O)N[C@@H](Cc1ccccc1)C(N)=O)[C@@H](C)O` [GLKDKFKSMGEKLKQYIQTWKAKF], for which the MIC in [1] turned out to be 1.1 µM (≈ 3.19 µg/mL); in experiment [2] it was 1.38 µM (≈ 4 µg/mL); in [3] it was 3.2 µM (≈ 9.29 µg/mL); in experiment [4] it was 2.76 µM (≈ 8 µg/mL); in experiment [5] it was 2.76 µM (≈ 8 µg/mL); in experiment [6] it was 11 µM (≈ 32 µg/mL). For the same compound, the minimum inhibitory concentration (MIC) in experiment [7] was 18 µM (≈ 52.2 µg/mL); in [8], 0.3 µM (≈ 0.871 µg/mL); in [9], greater than 35 µM; in [10], 4.5 µM (≈ 13.1 µg/mL).

Turning to `CC(C)C[C@H](NC(=O)[C@H](C)NC(=O)[C@H](C)NC(=O)[C@H](CCCCN)NC(=O)CNC(=O)[C@@H](NC(=O)[C@H](Cc1cnc[nH]1)NC(=O)[C@H](CCCCN)NC(=O)CNC(=O)[C@@H](NC(=O)[C@H](Cc1cnc[nH]1)NC(=O)[C@H](C)NC(=O)[C@H](C)NC(=O)[C@H](CCCCN)NC(=O)[C@H](CCCCN)NC(=O)[C@H](Cc1ccccc1)NC(=O)[C@H](Cc1ccccc1)NC(=O)[C@H](CO)NC(=O)CNC(=O)[C@H](Cc1c[nH]c2ccccc12)NC(=O)CN)C(C)C)C(C)C)C(=O)N[C@H](C(N)=O)[C@@H](C)O` [GWGSFFKKAAHVGKHVGKAALT], the MIC was 10 µM (≈ 23 µg/mL) in [11]; 10 µM (≈ 23 µg/mL) in experiment [12]; 7.07 µM (≈ 16.2 µg/mL) in [13]; 7.07 µM (≈ 16.2 µg/mL) in [14]; 7.07 µM (≈ 16.2 µg/mL) in experiment [15]; 7.07 µM (≈ 16.2 µg/mL) in experiment [16]. Further, the minimum inhibitory concentration (MIC) in [17] was determined as 7.07 µM (≈ 16.2 µg/mL); in experiment [18], 10 µM (≈ 23 µg/mL); in experiment [19], 10 µM (≈ 23 µg/mL); in experiment [20] it was 10 µM (≈ 23 µg/mL); in experiment [21], 10 µM (≈ 23 µg/mL).

As for `CC[C@H](C)[C@H](NC(=O)[C@@H]1CCCN1C(=O)[C@H](Cc1c[nH]c2ccccc12)NC(=O)[C@H](CCC(N)=O)NC(=O)[C@H](CCCN=C(N)N)NC(=O)[C@@H](NC(=O)[C@@H](NC(=O)[C@@H](N)CCCN=C(N)N)C(C)C)C(C)C)C(=O)NCC(=O)N[C@@H](CCCN=C(N)N)C(=O)N[C@H](C(=O)N[C@H](C(=O)N[C@@H](CCCN=C(N)N)C(=O)N[C@@H](CCCN=C(N)N)C(=O)N[C@H](C(=O)N[C@H](C(=O)N[C@@H](CCCN=C(N)N)C(=O)N[C@@H](CCCN=C(N)N)C(=O)N[C@H](C(=O)N[C@H](C(=O)N[C@@H](CCCN=C(N)N)C(=O)O)C(C)C)C(C)C)C(C)C)C(C)C)C(C)C)C(C)C` [RVVRQWPIGRVVRRVVRRVVR], the MIC was found to be 0.535 µM (≈ 1.41 µg/mL) in [22]; 0.268 µM (≈ 0.707 µg/mL) in [23]; 0.268 µM (≈ 0.707 µg/mL) in experiment [24]; 0.379 µM (≈ 1 µg/mL) in [25]; 0.379 µM (≈ 1 µg/mL) in experiment [26]; 0.535 µM (≈ 1.41 µg/mL) in experiment [27]. The MIC turned out to be 0.535 µM (≈ 1.41 µg/mL) in experiment [28], 0.535 µM (≈ 1.41 µg/mL) in [29] and 0.379 µM (≈ 1 µg/mL) in experiment [30].

(Values after DBAASP.)
